Source: patent publication US8476264B2, “N-(3-(2-amino-6,6-difluoro-4,4A,5,6,7,7A-hexahydro-cyclopenta[E][1,3]oxazin-4-yl)-phenylamides as BACE1 inhibitors” (Hoffmann-La Roche Inc., priority 2011, dated 2013)
pIC50: −log10 of the molar value.

Each compound was assayed against T1, BACE1 (Homo sapiens, UniProt P56817) (assay: Cellular Aβ-lowering assay (Aβ40 ELISA)). Conditions: HEK293 cells stably expressing human APP wt (APP695); Aβ40 in supernatant after 18-20 hrs; read-out: BACE1 cell act. Aβ40 IC50.
T1 construct: Human HEK293 cells which are stably transfected with a vector expressing a cDNA of the human APP wt gene (APP695); endogenous in cells; host or cells: HEK293 stably transfected with human APP695 wt
T1 sequence (P56817 46-501): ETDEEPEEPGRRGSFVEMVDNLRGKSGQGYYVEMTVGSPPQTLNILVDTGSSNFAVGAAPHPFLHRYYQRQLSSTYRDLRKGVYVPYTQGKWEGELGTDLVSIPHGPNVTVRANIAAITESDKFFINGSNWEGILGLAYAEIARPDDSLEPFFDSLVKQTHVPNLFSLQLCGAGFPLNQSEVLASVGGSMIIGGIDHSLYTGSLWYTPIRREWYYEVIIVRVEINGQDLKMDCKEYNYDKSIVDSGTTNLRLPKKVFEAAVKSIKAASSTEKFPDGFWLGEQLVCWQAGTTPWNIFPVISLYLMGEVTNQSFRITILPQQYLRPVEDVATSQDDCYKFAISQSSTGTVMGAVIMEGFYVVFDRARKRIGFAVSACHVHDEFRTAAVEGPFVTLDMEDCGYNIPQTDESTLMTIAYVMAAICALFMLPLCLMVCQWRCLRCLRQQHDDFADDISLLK
Assay type: cell-based
Experimental: Cellular Aβ-Lowering Assay:
Human HEK293 cells which are stably transfected with a vector expressing a cDNA of the human APP wt gene (APP695) were used to assess the potency of the compounds in a cellular assay. The cells were seeded in 96-well microtiter plates in cell culture medium (Iscove, plus 10% (v/v) fetal bovine serum, glutamine, penicillin/streptomycin) to about 80% confluence and the compounds were added at a 10× concentration in 1/10 volume of medium without FCS containing 8% DMSO (final concentration of DMSO was kept at 0.8% v/v). After 18-20 hrs incubation at 37° C. and 5% CO2 in a humidified incubator the culture supernatant was harvested for the determination of Aβ40 concentrations. 96 well ELISA plates (e.g., Nunc MaxiSorb) were coated with monoclonal antibody which specifically recognize the C-terminal end of Aβ40 (Brockhaus et al., NeuroReport 9, 1481-1486; 1998). After blocking of non-specific binding sites with e.g. 1% BSA and washing, the culture supernatants were added in suitable dilutions together with a horseradish peroxidase-coupled Aβ detection antibody (e.g., antibody 4G8, Senetek, Maryland Heights, Mo.) and incubated for 5 to 7 hrs. Subsequently the wells of the microtiter plate were washed extensively with Tris-buffered saline containing 0.05% Tween 20 and the assay was developed with tetramethylbenzidine/H2O2 in citric acid buffer. After stopping the reaction with one volume 1 N H2SO4 the reaction was measured in an ELISA reader at 450 nm wavelength. The concentrations of Aβ in the culture supernatants were calculated from a standard curve obtained with known amounts of pure Aβ peptide.

Going from `NC1=N[C@](CF)(c2cc(NC(=O)c3ccc(OCC(F)(F)C(F)F)cn3)ccc2F)[C@H]2CC(F)(F)C[C@H]2O1` [Example 11, 5-(2,2,3,3-Tetrafluoro-propoxy)-pyridine-2-carboxylic acid [(S)-3-((1R,2R)-2-amino-6,6-difluoro-4-fluoromethyl-4,4a,5,6,7,7a-hexahydro-cyclopenta[e][1,3]oxazin-4-yl)-4-fluoro-phenyl]-amide] to `NC1=N[C@](CF)(c2cc(NC(=O)c3ccc(OCC(F)F)cn3)ccc2F)[C@H]2CC(F)(F)C[C@H]2O1` [Example 14, 5-(2,2-Difluoro-ethoxy)-pyridine-2-carboxylic acid [(S)-3-((1R,2R)-2-amino-6,6-difluoro-4-fluoromethyl-4,4a,5,6,7,7a-hexahydro-cyclopenta[e][1,3]oxazin-4-yl)-4-fluoro-phenyl]-amide], the pIC50 falls from 7.85 to 7.64 (0.21 log units). The first is the more potent here.

Compared with `NC1=N[C@](CF)(c2cc(NC(=O)c3nn(C(F)F)cc3Cl)ccc2F)[C@H]2CC(F)(F)C[C@H]2O1` [Example 35, 4-Chloro-1-difluoromethyl-1H-pyrazole-3-carboxylic acid [(S)-3-((1R,2R)-2-amino-6,6-difluoro-4-fluoromethyl-4,4a,5,6,7,7a-hexahydro-cyclopenta[e][1,3]oxazin-4-yl)-4-fluoro-phenyl]-amide], `NC1=N[C@@](c2cc(NC(=O)c3nn(C(F)F)cc3Cl)ccc2F)(C(F)F)[C@H]2CC(F)(F)C[C@H]2O1` [Example 43, 4-Chloro-1-difluoromethyl-1H-pyrazole-3-carboxylic acid [(S)-3-((1R,2R)-2-amino-4-difluoromethyl-6,6-difluoro-4,4a,5,6,7,7a-hexahydro-cyclopenta[e][1,3]oxazin-4-yl)-4-fluoro-phenyl]-amide] is 0.26 log units lower in pIC50: 8.52 for the first, 8.26 for the second. The first is the more potent here.

First: NC1=N[C@](CF)(c2cc(NC(=O)c3ncc(Cl)cn3)ccc2F)[C@H]2CC(F)(F)C[C@H]2O1 [Example 32, 5-Chloro-pyrimidine-2-carboxylic acid [(S)-3-((1R,2R)-2-amino-6,6-difluoro-4-fluoromethyl-4,4a,5,6,7,7a-hexahydro-cyclopenta[e][1,3]oxazin-4-yl)-4-fluoro-phenyl]-amide]
Second: NC1=N[C@](CF)(c2cc(NC(=O)c3ccc(Cl)cn3)ccc2F)[C@H]2CC(F)(F)C[C@H]2O1 [Example 4, 5-Chloro-pyridine-2-carboxylic acid [(S)-3-((1R,2R)-2-amino-6,6-difluoro-4-fluoromethyl-4,4a,5,6,7,7a-hexahydro-cyclopenta[e][1,3]oxazin-4-yl)-4-fluoro-phenyl]-amide]
The pIC50 of the first is 0.60 log units lower: 8.10 for the first, 8.70 for the second.

Going from `Cc1nc(C(=O)Nc2ccc(F)c([C@@]3(C(F)F)N=C(N)O[C@@H]4CC(F)(F)C[C@@H]43)c2)co1` [Example 44, 2-Methyl-oxazole-4-carboxylic acid [(S)-3-((1R,2R)-2-amino-4-difluoromethyl-6,6-difluoro-4,4a,5,6,7,7a-hexahydro-cyclopenta[e][1,3]oxazin-4-yl)-4-fluoro-phenyl]-amide] to `Cc1nc(C(=O)Nc2ccc(F)c([C@@]3(CF)N=C(N)O[C@@H]4CC(F)(F)C[C@@H]43)c2)co1` [Example 33, 2-Methyl-oxazole-4-carboxylic acid [(S)-3-((1R,2R)-2-amino-6,6-difluoro-4-fluoromethyl-4,4a,5,6,7,7a-hexahydro-cyclopenta[e][1,3]oxazin-4-yl)-4-fluoro-phenyl]-amide], the pIC50 rises from 7.38 to 8.32 (0.94 log units). The second is the more potent here.

Going from `CC#CCOc1ccc(C(=O)Nc2ccc(F)c([C@@]3(CF)N=C(N)O[C@@H]4CC(F)(F)C[C@@H]43)c2)nc1` [Example 5, 5-But-2-ynyloxy-pyridine-2-carboxylic acid [(S)-3-((1R,2R)-2-amino-6,6-difluoro-4-fluoromethyl-4,4a,5,6,7,7a-hexahydro-cyclopenta[e][1,3]oxazin-4-yl)-4-fluoro-phenyl]-amide] to `NC1=N[C@](CF)(c2cc(NC(=O)c3ccc(OCC4CC4)cn3)ccc2F)[C@H]2CC(F)(F)C[C@H]2O1` [Example 12, 5-Cyclopropylmethoxy-pyridine-2-carboxylic acid [(S)-3-((1R,2R)-2-amino-6,6-difluoro-4-fluoromethyl-4,4a,5,6,7,7a-hexahydro-cyclopenta[e][1,3]oxazin-4-yl)-4-fluoro-phenyl]-amide], the pIC50 falls from 9.10 to 8.07 (1.03 log units). The first is the more potent here.

First: NC1=N[C@](CF)(c2cc(NC(=O)c3ncc(Cl)cc3Cl)ccc2F)[C@H]2CC(F)(F)C[C@H]2O1 [Example 6, 3,5-Dichloro-pyridine-2-carboxylic acid [(S)-3-((1R,2R)-2-amino-6,6-difluoro-4-fluoromethyl-4,4a,5,6,7,7a-hexahydro-cyclopenta[e][1,3]oxazin-4-yl)-4-fluoro-phenyl]-amide]
Second: NC1=N[C@](CF)(c2cc(NC(=O)c3ncc(C(F)(F)F)cc3Cl)ccc2F)[C@H]2CC(F)(F)C[C@H]2O1 [Example 16, 3-Chloro-5-trifluoromethyl-pyridine-2-carboxylic acid [(S)-3-((1R,2R)-2-amino-6,6-difluoro-4-fluoromethyl-4,4a,5,6,7,7a-hexahydro-cyclopenta[e][1,3]oxazin-4-yl)-4-fluoro-phenyl]-amide]
The pIC50 of the first is 0.33 log units lower: 8.77 for the first, 9.10 for the second. The second is the more potent here.

Compared with `CC(F)(F)c1cnc(C(=O)Nc2ccc(F)c([C@@]3(CF)N=C(N)O[C@@H]4CC(F)(F)C[C@@H]43)c2)cn1` [Example 29, 5-(1,1-Difluoro-ethyl)-pyrazine-2-carboxylic acid [(S)-3-((1R,2R)-2-amino-6,6-difluoro-4-fluoromethyl-4,4a,5,6,7,7a-hexahydro-cyclopenta[e][1,3]oxazin-4-yl)-4-fluoro-phenyl]-amide], `NC1=N[C@](CF)(c2cc(NC(=O)c3cnc(OCF)cn3)ccc2F)[C@H]2CC(F)(F)C[C@H]2O1` [Example 26, 5-Fluoromethoxy-pyrazine-2-carboxylic acid [(S)-3-((1R,2R)-2-amino-6,6-difluoro-4-fluoromethyl-4,4a,5,6,7,7a-hexahydro-cyclopenta[e][1,3]oxazin-4-yl)-4-fluoro-phenyl]-amide] is 1.02 log units higher in pIC50: 7.44 for the first, 8.46 for the second. The second is the more potent here.

Going from `N#Cc1ccc(C(=O)Nc2ccc(F)c([C@]3(CF)N=C(N)O[C@@]4(CF)CC(F)(F)C[C@H]43)c2)nc1` [Example 45, 5-Cyano-pyridine-2-carboxylic acid [3-((1S,7aS)-2-(R)-amino-6,6-difluoro-4,7a-bis-fluoromethyl-4,4a,5,6,7,7a-hexahydro-cyclopenta[e][1,3]oxazin-4-yl)-4-fluoro-phenyl]-amide] to `NC1=N[C@](CF)(c2cc(NC(=O)c3ccc(Cl)cn3)ccc2F)[C@H]2CC(F)(F)C[C@@]2(CF)O1` [Example 47, 5-Chloro-pyridine-2-carboxylic acid [3-((1R,7aR)-2-(S)-amino-6,6-difluoro-4,7a-bis-fluoromethyl-4,4a,5,6,7,7a-hexahydro-cyclopenta[e][1,3]oxazin-4-yl)-4-fluoro-phenyl]-amide], the pIC50 rises from 4.96 to 7.07 (2.11 log units).

Compared with `NC1=N[C@@](c2cc(NC(=O)c3cnc(OCF)cn3)ccc2F)(C(F)F)[C@H]2CC(F)(F)C[C@H]2O1` [Example 38, 5-Fluoromethoxy-pyrazine-2-carboxylic acid [(S)-3-((1R,2R)-2-amino-4-difluoromethyl-6,6-difluoro-4,4a,5,6,7,7a-hexahydro-cyclopenta[e][1,3]oxazin-4-yl)-4-fluoro-phenyl]-amide], `NC1=N[C@@](c2cc(NC(=O)c3cnc(Cl)cn3)ccc2F)(C(F)F)[C@H]2CC(F)(F)C[C@H]2O1` [Example 39, 5-Chloro-pyrazine-2-carboxylic acid [(S)-3-((1R,2R)-2-amino-4-difluoromethyl-6,6-difluoro-4,4a,5,6,7,7a-hexahydro-cyclopenta[e][1,3]oxazin-4-yl)-4-fluoro-phenyl]-amide] is 1.92 log units lower in pIC50: 7.77 for the first, 5.85 for the second. The first is the more potent here.

`NC1=N[C@](CF)(c2cc(NC(=O)c3cnc(OCC4CC4)cn3)ccc2F)[C@H]2CC(F)(F)C[C@H]2O1` [Example 25, 5-Cyclopropylmethoxy-pyrazine-2-carboxylic acid [(S)-3-((1R,2R)-2-amino-6,6-difluoro-4-fluoromethyl-4,4a,5,6,7,7a-hexahydro-cyclopenta[e][1,3]oxazin-4-yl)-4-fluoro-phenyl]-amide] and `NC1=N[C@](CF)(c2cc(NC(=O)c3ncc(F)cc3F)ccc2F)[C@H]2CC(F)(F)C[C@H]2O1` [Example 8, 3,5-Difluoro-pyridine-2-carboxylic acid [(S)-3-((1R,2R)-2-amino-6,6-difluoro-4-fluoromethyl-4,4a,5,6,7,7a-hexahydro-cyclopenta[e][1,3]oxazin-4-yl)-4-fluoro-phenyl]-amide] are within 0.2 log units of each other in pIC50: 7.82 for the first, 7.77 for the second.

With `NC1=N[C@@](c2cc(NC(=O)c3ccc(Cl)cn3)ccc2F)(C(F)F)[C@H]2CC(F)(F)C[C@H]2O1` [Example 37, 5-Chloro-pyridine-2-carboxylic acid [(S)-3-((1R,2R)-2-amino-4-difluoromethyl-6,6-difluoro-4,4a,5,6,7,7a-hexahydro-cyclopenta[e][1,3]oxazin-4-yl)-4-fluoro-phenyl]-amide] the pIC50 was 7.77.
